Data set [1] in a line: Saturation solubility, shake-flask with UV quantification. The data set is classed as physicochemical. The note with it: for final pH measured of the supernatant / Saturation solubility: listed as The compound of formula (I), form A.
Experimental: The FaSSIF and FeSSIF solutions were prepared using Phares SIF powder according to the formulation instructions and the SGF solution was prepared using the guidelines provided. […] The pH and temperature of the supernatant were measured on a SiriusT3 instrument.
Data set [2] in a line: Wettability: contact angle measurement with water on pressed powder. The note with it: for Contact angle: water, listed as A, in ° (unit assumed). The data set is classed as physicochemical.
Experimental: Contact angel instrument: EasyDrop DSA15E (Krüss, Hamburg, Germany)
Syringe: NE44, diameter of needle 0.5 mm (Krüss, Hamburg, Germany)
The powder was pressed (approx 50 mg powder, 3 tons, 2 min) in tablets and analyzed by contact angle measurement. The angel between the solid and the liquid is measured after 0 and up to 60 seconds using water.
All determinations used the above method and the limit for the standards measurements are well within the given limits.
The nature of data set [3]: Super-saturation measurement (CheqSol): intrinsic and kinetic solubility. In kind it is physicochemical. The source says: Anal. Chem. 2005, 77(4), 983-990; 2—Box, K J. Völgyi, G. Baka, E. Stuart, M. Takács-Novák, K. Corner, J E A. Equilibrium vs. kinetic measurements of aqueous solubility, and the ability of compounds to supersaturate in solution—a validation study. J. Pharm. Sci. 2006, 95, 1298-1307; 3—Sköld, C. Winiwarter, S. Johan Wernevik, J. Bergström, F. Engström, L. Allen, R. Box, K. Corner, J. Mole, J. Hallberg, A. Lennernäs, H. Lundstedt, T. Ungell, A-L. Karlén, A. Presentation of a Structurally Diverse and Commercially Available Drug Data Set for Correlation and Benchmarking Studies. J. Med. Chem. 2006, 49(23), 6660-6671;
. Med. Chem.; 2007, 50 (5), 979-983; 5—Llinás, A. Box, K J. Burley, J C. Glen, R C. Goodman, J M. J. A new method for the reproducible generation of polymorphs: two forms of Sulindac with very different solubilities. […] 6—Box K et al, Using Measured pKa, Log P and Solubility to Investigate Supersaturation and Predict BCS Class, Current Drug Metabolism, 2008, 9, 869-878]
1—kinetic solubility is the concentration of a compound in solution at the time when an induced precipitate first appears
2—equilibrium solubility (also called thermodynamic solubility) is the concentration of compound in a saturated solution when excess solid is present, and solution and solid are at equilibrium
3—intrinsic solubility [Hörter, D.; Dressman, J. B. Adv. Drug Deliv. Rev., 1997, 25, 3-14] is the equilibrium solubility of the free acid or base form of an ionisable compound at a pH where it is fully un-ionized
The super-saturation ratio is calculated as the ratio of kinetic solubility divided by the Intrinsic Solubility.

Data set [4] is described as follows: Solubility-excipient screening (Sirius CheqSol, 0.15 M aqueous KCl). In kind it is physicochemical. The note with it: drug:excipient 1:1 by weight, Form A titrated from pH 12 with 0.5 M HCl.
Experimental: In all experiments, the compound of formula (II) and excipient were present at a 1:1 weight ratio. For each excipient, Form A of the potassium salt was titrated at an initial concentration of ˜1 mg/ml from pH 12 to low pH with 0.5 M HCl. A UV-turbidity probe was used to detect the presence of sample precipitate and all experiments were carried out according to standard CheqSol procedure.
The conditions of data set [5]: cited from earlier work.

Take `CNc1cc2[nH]c(=O)n(-c3ccc(NC(=O)[N-]S(=O)(=O)c4ccc(Cl)s4)cc3)c(=O)c2cc1F.[K+]` [Form A]: the “final pH measured of the supernatant” value came to 6.93 in data set [1] (FaSSIF pH 6.5-1w); 5.15 in data set [1] (FeSSIF pH 5.0-1w); 6.94 in data set [1] (Na Phosphate pH 6.8); 4.81 in data set [1] (Na-Acetate pH 4.5); 4.74 in data set [1] (SGF pH 2.1). For the same molecule, the Saturation solubility amounted to 2.76 µg/mL in data set [1] (FeSSIF pH 5.0-1w, mean N = 2); 20.25 µg/mL in data set [1] (Na Phosphate pH 6.8, mean N = 2); 0.48 µg/mL in data set [1] (Na-Acetate pH 4.5, mean N = 2); 2.24 µg/mL in data set [1] (SGF pH 2.1, mean N = 2). The amount in solution in data set [1] (pH 6.5, fassif, thermodynamic from solid, FaSSIF pH 6.5-1w, mean N = 2) (solubility at 72 h) came to 107 µg/mL. Moreover, the “surface hydrophobilicity from contact angle” value in data set [2] (critical angle around 50° (>50° hydrophob <50° hydrophil), listed as polymorph A) was “hydrophob”. Moreover, the Contact angle in data set [2] (0 sec) is 78.8; in data set [2] (30 sec), 53.3; in data set [2] (60 sec) it was 51.0. The solubility (kinetic) – broadly, solubility judged after dilution from a stock solution rather than from solid – in data set [3] (kinetic from dmso stock, CheqSol) was 6.57 µg/mL. The ratio super saturation in data set [3] (kinetic solubility divided by intrinsic solubility, listed as K-salt-Form A) was 412. Besides, in data set [3] (thermodynamic from solid, CheqSol), the solubility (in general, the concentration that dissolves in the medium under given conditions) was determined as 0.0159 µg/mL. For the same molecule, in data set [4], the “pH first precipitation occurs” value was determined as 5.3. This molecule also registered a Kinetic solubility in data set [4] (~1 mg/ml) of 12.57 µM.
As for `NCCCC[C@H](N)C(=O)O` [Lysine], the “Aqueous Solubility” value in data set [5] is reported as “free soluble”.
